{"source": "patent US20210388012A1", "about": "“METHODS AND COMPOSITIONS FOR PRODRUG FORMS OF SPECTINOMYCIN AND SPECTINAMIDE ANALOGS” (priority 2018, published 2021)", "key": {"[1]": {"test": "Single ascending maximum tolerated dose study in rat", "assay_type": "in vivo", "conditions": "female, Sprague-Dawley, rat, in vivo, iv", "experimental": "Several compounds were assessed in single ascending maximum tolerated studies. The compounds assessed were 1810; 3408, a prodrug form of compound 1810; 1599, a chloro homologue of compound 1810; and gentamicin, an antimicrobial associated with ototoxicity. The study was carried out in female Sprague-Dawley rats (n=3 per group). All the drug solutions were prepared in water and PLASMA-LYTE A (50:50; […] was obtained from Baxter Healthcare Corporation, Deerfield, Ill.). Each group of rats were fasted overnight with access to water aJ libitum and a fixed volume (2 mL) of drug-containing solution was administered via the jugular vein catheter. Food was withheld for 3 h post dosing. Different phases of the study were classified on five different speeds of i.v, administration; Phase 1: 5 sec, Phase 2: 30 sec, Phase 3: 5 min, Phase 4: 15 min, Phase 5: 30 min. In the first and second phases, a set of predefined dose levels: 10, 25, 50, 75, 100, 150, 300, 350, 400, 450 and 500 mg/kg. Escalation to the next higher dose was conditional upon absence of signs of acute toxicity following the immediate lower dose over a 24 h period. All animals were monitored by visual inspection focused on focus on changes in skin, fur, eyes, and also respiratory, circulatory, autonomic and central nervous systems, along with somatomotor activity and behavior pattern, including tremors, convulsions, salivation, diarrhea, lethargy, sleep and coma. A dose level was deemed an MTD if […] of acute toxicity were observed and that dose was chosen for the second phase of the study where the process was repeated to determine a toxic dose. For third, fourth and fifth phases, dosing solution was infused by a Instech tethering system (Instech Laboratories Inc., Plymouth Meeting, Pa.) where the animal is freely moving within its cage, the catheter connection is held in place by a vascular access harness and a swivel system, and the drug administration is performed via a Harvard Apparatus programmable syringe pump. After dosing, the tether was removed immediately after completion of the infusion and the catheter was flushed with (100 μL) PlasmaLyte A. Surviving animals from the previous dose with no signs of toxicity were re-used in either phases of these studies upon allowing a one day drug washout period."}, "[2]": {"tested_on": "M. tuberculosis H37Rv", "test": "Minimum inhibitory concentration (MIC), microbroth dilution", "assay_type": "cell-based", "conditions": "Mycobacterium tuberculosis, 168 h; M. tuberculosis H37Rv, 7 days, 37° C.; read-out: MIC (H37Rv)"}, "[3]": {"tested_on": "M. tuberculosis Erdman (TMCC107)", "test": "Murine model of acute TB infection", "assay_type": "in vivo", "conditions": "BALB/c mice, subcutaneous injection 400 mg/kg daily, 12 consecutive days"}, "[4]": {"biological_target": "Mycobacterium smegmatis 70S bacterial ribosomes", "test": "Ribosomal inhibition assay (luciferase-based protein synthesis inhibition)", "assay_type": "biochemical", "conditions": "purified M. smegmatis 70S ribosomes, firefly luciferase mRNA", "experimental": "In vitro activity was also assessed using a ribosomal inhibition assay. Briefly, luciferase-based protein synthesis inhibition assays were performed in translation reaction as described previously (Bruell, et al. Biochemistry. 2008 47 (34), 8828-8839), using purified Mycobacterium smegmatis 70S bacterial ribosomes and firefly luciferase mRNA prepared in vitro using T7 RNA polymerase. IC50 values represent the drug concentration that inhibits luciferase activity by 50%."}, "[5]": {"test": "Pharmacokinetic study in rat", "assay_type": "in vivo, Sprague-Dawley rats", "conditions": "male, Sprague-Dawley, in vivo, iv, 10 mg/kg", "experimental": "LC-MS Method 1. Quantitative determination of the amount of a disclosed compound present in blood, plasma, or urinary can be determined by LC-MS/MS methods. Briefly, a suitable method involves use of calibrants (0.976, 1.95, 3.91, 7.81, 15.63, 31.25, 62.5, 125, 250, 500, 1000 ng/mL) were in sample matrix (e.g., rat plasma, blood or urine). A separate solution of disclosed compound (independent of calibrants) is used to prepare quality controls. Appropriate volumes of working solutions are added to the sample matrix to yield the final concentrations of 1, 50, 1000 ng/mL. Linearity for calibrants in duplicate is assessed by subjecting the spiked concentrations and the respective peak areas to least-square linear regression analysis with and without intercepts, and a weighted least-square regression (1/x or 1/x^2). The lowest limit of quantitation (LLOQ) in the standard curve measured with acceptable accuracy and precision for a disclosed compound from rat plasma has been previously established as 0.976 ng/mL for a representative compound, 1810. All samples are precipitated by the addition of 4-volumes (100 μL) of IS, 1369 (10 ng/mL) in methanol to a volume (25 μL) of plasma/urine test sample. The samples are vortexed (Fisher scientific, USA) for 30 sec and centrifuged at 10,000×g for 10 min at 4° C. and the supernatants are collected for LC-MS/MS analysis. Chromatographic separation is carried out using a Shimadzu Nexera XR (LC-20ADXR) liquid chromatograph (Shimadzu Corporation, USA) consisting of two pumps, online degasser, system controller and an auto sampler. Mobile phase consisting of a) water with 1.6% nonafluoropentanoic acid and 0.7% formic acid b) 90% acetonitrile with 0.8% nonafluoropentanoic acid and 0.35% formic acid can be used at a flow rate of 0.5 rnLirnin in gradient mode. A Waters® Symmetry ® 3.5μ C8, 50×2.1 mm column (Waters, Milford, Mass.) is used for the separation. Samples (5 μL) are injected on column and the eluate is provided directly to an API 5500 triple quadruple mass spectrometer (Applied Biosystems, Foster City, Calif.) equipped with a turbospray ion source operated in the positive ion mode. The optimized multiple reactions monitoring (MRM) conditions for 3408 (549.2A207.1), 1810 (469.2^207.1) and IS (418.3^207.1) are monitored with a declustering potential of 45 V and collision energy of 25 eV. Data are acquired and processed with Analyst software version 1.6.2 (Applied Biosystems, Foster City, Calif.).\nPharmacokinetic assessment of the disclosed compounds can be determined in a rat model as described herein. Briefly, catheterized male Sprague-Dawley rats from Harlan Bioscience (Indianapolis, Ind.), weighing 200-250 g, are kept at a 12 h light/dark cycle with access to food and water ad libitum. The procedures are approved by the Institutional Animal Care and Use Committee of the University of Tennessee Health Science Center. Formulations of a disclosed compound are prepared in water (50%) and PlasniaLyte A (50%). Test compound can be administered either via intravenous route (10 mg/kg) via femoral vein catheter with the study conducted using a group of 6 rats. Blood (250 μL) was collected via the jugular vein catheter at 0.08, 0.25, 0.5, 0.75, 1, 1.5, 2, 4, 6, 8, 10, 24 and 48 h after drug administration. Plasma was immediately separated by centrifugation (6,000×g for 10 min at 4° C.) and stored at −70° C. until analysis. The plasma concentration was determined as described herein above in LC-MS Method 1, and plasma concentration-time courses were fitted to a non-compartmental model using Phoenix WinNonlin 7.0 (Certara L. P., Princeton, NJ). Area under the concentration-time profile curve (AUC) was calculated by the log trapezoidal rule by log-linear regression and extrapolated to infinity by addition of the value Ct/λZ, where Ct is the concentration at the last time point, and λZ the terminal slope (determined by linear regression) of the log concentration-time curve. […]"}}, "note": "Where two headings read alike, the source gives them in different places.", "data": [{"smiles": "CN[C@@H]1[C@H](O)[C@H](NC)[C@H]2O[C@]3(O)[C@H](O[C@@H]2[C@H]1O)O[C@H](C)C[C@H]3NC(=O)Cc1ccc(O)cn1", "note": "[Compound 1810, 2-(5-hydroxypyridin-2-yl)-N-((2R,4R,4aS,5aR,6S,7S,8R,9S,9aR,10aS)-4a,7,9-trihydroxy-2-methyl-6,8-bis(methylamino)decahydro-2H-benzo[b]pyrano[2,3-e] [1,4]dioxin-4-yl)acetamide]", "values": [{"measurement": "MTD at 24 h", "setting": "[1]", "value": "200 to 350", "unit": "mg/kg"}, {"measurement": "MTD at 24 h", "setting": "[1]; female Sprague-Dawley rats, 5 second IV bolus, read-out: MTD", "value": 200, "unit": "mg/kg"}, {"measurement": "MTD at 24 h", "setting": "[1]; female Sprague-Dawley rats, 30 second IV bolus, read-out: MTD", "value": 200, "unit": "mg/kg"}, {"measurement": "MTD at 24 h", "setting": "[1]; female Sprague-Dawley rats, 5 minute IV infusion, read-out: MTD", "value": 350, "unit": "mg/kg"}, {"measurement": "MTD at 24 h", "setting": "[1]; female Sprague-Dawley rats, 15 minute IV infusion, read-out: MTD", "value": "> 500", "unit": "mg/kg"}, {"measurement": "MIC", "setting": "[2]", "value": 0.8, "unit": "µg/mL"}, {"measurement": "Efficacy in mouse model of acute tuberculosis infection (lung CFU, FIG. 1)", "setting": "[3]", "value": "similarly active"}, {"measurement": "IC50 (M. smegmatis)", "setting": "[4]", "value": 0.84, "unit": "µg/mL"}, {"measurement": "AUC", "setting": "[5]", "value": 22000, "unit": "ng·h/mL"}, {"measurement": "CL", "setting": "[5]", "value": 7.72, "unit": "mL/min/kg"}, {"measurement": "Cmax", "setting": "[5]", "value": 47000, "unit": "ng/mL"}, {"measurement": "Vss", "setting": "[5]", "value": 0.494, "unit": "L/kg"}, {"measurement": "t½", "setting": "[5]", "value": 23.5, "unit": "min"}]}]}
